Assay results published in patent US20090074676A1, “Inhibition of p38 MAPK For Treatment Of Obesity” (SMITHKLINE BEECHAM CORPORATION, priority 2005, published 2009).
Entries after “also recorded” stand apart in the source; their conditions may differ.

Tests used:
[1] = tested on: 3T3-L1 adipocytes; settings: by reducing GLUT4 activity; cited from earlier work
[2] = tested on: diet-induced obese (DIO) AKR mice; test: Experiment 1: four weeks treatment of 18-19 weeks old male DIO AKR mice on high fat diet (body weight, body composition, glucose, ITT); type: in vivo
Protocol: Compound 2 was administered for four weeks treatment in 18-19 weeks old male, diet-induced obese (DIO) AKR mice. Methods: Male AKR mice, from Jackson Laboratories, group housed, 18-19 weeks old, on high fat diet (HFD, D12331 rodent diet, 58 kcal % from fat and sucrose. Research Diets, Inc., New Brunswick, N.J.) started at 4-5 weeks old. A parallel group of mice on normal diet (ND, Purina 5001) was served as diet control. During the last 4 weeks of diet period, mice on HFD were treated with vehicle (0.5% tragacanth in 0.03N HCl), Compound 2 was administered at 3 mg/kg, and 10 mg/kg, and water (control for vehicle), twice daily (BID), orally (PO) at 10 ml/kg. Mice on normal diet (ND) were treated with vehicle. Mouse number in each group was 7-10. Body weight (BW) was monitored once a week. Body composition was monitored every other week by using EchoMRI™ Whole Body Composition Analyzer (Echo Medical Systems, Houston, Tex.). Fasting blood glucose was measured at 2 weeks of treatment. Postprandial blood glucose was measured at before and end of treatment. Fasting serum insulin was measured at dosing 2 weeks via orbital bleeding. Serum IL-6 was measured at the end of treatment under fasting condition. Insulin tolerance test (ITT) was also performed at end of the diet period.

[3] = tested on: DIO C57BL/6 mice; test: Experiment 3: four weeks treatment of male DIO C57BL/6 mice on high fat diet (body weight, body composition, glucose); type: in vivo; settings: PO, BID, 4 weeks
Protocol: Methods: Male C57BL/6 mice, from Jackson Laboratories, group housed, 18-19 weeks old, on high fat diet (HFD, D12331 rodent diet, 58 kcal % from fat and sucrose. Research Diets, Inc., New Brunswick, N.J.) started at 4-5 weeks old. A parallel group of mice on normal diet (ND, Purina 5001) was served as diet control. During the last 4 weeks of diet period, mice on HFD were treated with vehicle (0.5% tragacanth in 0.03N HCl), Compound 2 administered at 3, 10, and 30 mg/kg, BID, PO (10 ml/kg). Mice on ND were treated with vehicle. Mouse number in each group was 8-10. Body weight (BW), body composition, fasting blood glucose, postprandial blood glucose and insulin were measured. […] Epididymal fat pad was collected to determine PPARγ and GLUT4 gene expression.

[4] = tested on: DIO AKR mice; test: Experiment 2: two week treatment of 24-25 weeks old male DIO AKR mice on high fat diet; type: in vivo; settings: 10 & 30 mg/kg, PO, BID
Protocol: Compound 2 was administered for a two week treatment in 24-25 weeks old male DIO AKR mice (older). Methods: Male AKR mice, from Jackson Laboratories, group housed, 24-25 weeks old, on high fat diet (HFD, D12331 rodent diet, 58 kcal % from fat and sucrose. Research Diets, Inc., New Brunswick, N.J.) started at 4-5 weeks old. A parallel group of mice on normal diet (ND, Purina 5001) was served as diet control. During the last 2 weeks of diet period, mice on HFD were treated with vehicle (0.5% tragacanth in 0.03N HCl), Compound 2 administered at 10, and 30 mg/kg, BID, PO (10 ml/kg). Mice on ND were treated with vehicle. Mouse number in each group was 7-10. Body weight (BW), body composition, postprandial blood glucose, and fasting serum insulin were measured.

C[S+]([O-])c1ccc(-c2nc(-c3ccc(F)cc3)c(-c3ccncc3)[nH]2)cc1 (stereo not shown) [Compound 1, 4-(4-Fluorophenyl)-2-(4-methylsulfinylphenyl)-5-(4-pyridyl)imidazole]
insulin-induced glucose uptake [1]: reduced insulin-induced glucose uptake

COc1nccc(-c2c(-c3ccc(F)cc3)ncn2[C@H]2CC[C@H](O)CC2)n1 [Compound 2, trans-1-(4-hydroxycyclohexyl)-4-(4-fluorophenyl)-5-[(2-methoxy)pyrimidin-4-yl]imidazole]
blood glucose ([2]; 3 & 10 mg/kg, PO, BID, 4 weeks): no effect; also recorded: did not have any significant effect
lean mass ([2]; 3 & 10 mg/kg, PO, BID, 4 weeks): no effect
reduction in body weight (BW) ([2]; 3 & 10 mg/kg, PO, BID, last 4 weeks of 14 weeks on HFD, p<0.05): 4-9%
response to an insulin tolerance test (ITT) ([2]; end of diet period, insulin i.p. 0.75 U/kg): did not have any significant effect
blood glucose [3]: no effect; also recorded: did not have any significant effect
lean mass [3]: no effect
blood glucose ([4]; 2 weeks): no effect; also recorded: did not have any significant effect
reduction in body weight (BW) ([4]; last 2 weeks of 20 weeks on HFD, p<0.05): 4-9%
time at which the effect on BW and fat mass appeared ([4]; more pronounced over the 2 weeks): 4 days
